Species on record: Rattus norvegicus
Assay: DrugMatrix - Regimen: Daily Repeat
Format: toxicity, organism-based, Sprague-Dawley
Set-up: regimen Daily Repeat, gender Male, age 6-8 weeks
Details: in vivo, po, route oral GAVAGE, vehicle .5 % CMC; for ABSOLUTE BASOPHIL / ABSOLUTE EOSINOPHIL / ABSOLUTE LYMPHOCYTE / ABSOLUTE MONOCYTE / ABSOLUTE SEGMENTED NEUTROPHIL / BASOPHIL / EOSINOPHIL / ERYTHROCYTE COUNT / HEMATOCRIT / HEMOGLOBIN / LEUKOCYTE COUNT / LYMPHOCYTE / MEAN CORPUSCULAR HEMOGLOBIN / MEAN CORPUSCULAR HEMOGLOBIN CONCENTRATION / MEAN CORPUSCULAR VOLUME / MONOCYTE / NEUTROPHIL / NUCLEATED RED BLOOD CELLS / PLATELET COUNT: tissue Blood; for ALANINE AMINOTRANSFERASE / ALBUMIN / ALKALINE PHOSPHATASE / ASPARTATE AMINOTRANSFERASE / BLOOD UREA NITROGEN / CARBON DIOXIDE / CHLORIDE / CHOLESTEROL / CREATINE PHOSPHOKINASE / CREATININE / GLUCOSE / LACTATE DEHYDROGENASE / LIPASE / PHOSPHORUS / POTASSIUM / SODIUM / TOTAL BILIRUBIN / TOTAL PROTEIN / URIC ACID: tissue Plasma
[1] = 0 mg/kg, 72 h, dose level Control, time 3 day
[2] = 0 mg/kg, 120 h, dose level Control, time 5 day
[3] = 3 mg/kg, 72 h, dose level Low, time 3 day

O=c1[nH]cc(F)c(=O)[nH]1 [FLUOROURACIL]
ABSOLUTE BASOPHIL [1]: 0 CELLS/uL | ABSOLUTE EOSINOPHIL [1]: 130.33 CELLS/uL | ABSOLUTE LYMPHOCYTE [1]: 10030.67 CELLS/uL | ABSOLUTE MONOCYTE [1]: 41 CELLS/uL | ABSOLUTE SEGMENTED NEUTROPHIL [1]: 1298 CELLS/uL | BASOPHIL [1]: 0% | EOSINOPHIL [1]: 1% | ERYTHROCYTE COUNT [1]: 5.22 x10E6/uL | HEMATOCRIT [1]: 33.53% | HEMOGLOBIN [1]: 12.73 G/DL | LEUKOCYTE COUNT [1]: 11.5 x10E3/uL | LYMPHOCYTE [1]: 87.67% | MEAN CORPUSCULAR HEMOGLOBIN [1]: 24.45 pg | MEAN CORPUSCULAR HEMOGLOBIN CONCENTRATION [1]: 37.97 G/DL | MEAN CORPUSCULAR VOLUME [1]: 64.33 fL | MONOCYTE [1]: 0.33% | NEUTROPHIL [1]: 11% | NUCLEATED RED BLOOD CELLS [1]: 0 /100WBC | PLATELET COUNT [1]: 1310.5 x10E3/uL | ALANINE AMINOTRANSFERASE [1]: 52 u/L | ALBUMIN [1]: 4.22 G/DL | ALKALINE PHOSPHATASE [1]: 340.17 u/L | ASPARTATE AMINOTRANSFERASE [1]: 87.5 u/L | BLOOD UREA NITROGEN [1]: 15.17 mg/dL | CARBON DIOXIDE [1]: 25.5 mmol/L | CHLORIDE [1]: 101.83 MEQ/L | CHOLESTEROL [1]: 68.17 mg/dL | CREATINE PHOSPHOKINASE [1]: 379.67 u/L | CREATININE [1]: 0.17 mg/dL | GLUCOSE [1]: 181.67 mg/dL | LACTATE DEHYDROGENASE [1]: 256.17 u/L | LIPASE [1]: 8 u/L | PHOSPHORUS [1]: 12.1 mg/dL | POTASSIUM [1]: 5.88 MEQ/L | SODIUM [1]: 143.67 MEQ/L | TOTAL BILIRUBIN [1]: 0.18 mg/dL | TOTAL PROTEIN [1]: 5.92 G/DL | URIC ACID [1]: 1.7 mg/dL | ABSOLUTE BASOPHIL [2]: 0 CELLS/uL | ABSOLUTE EOSINOPHIL [2]: 31 CELLS/uL | ABSOLUTE LYMPHOCYTE [2]: 9599.17 CELLS/uL | ABSOLUTE MONOCYTE [2]: 52.83 CELLS/uL | ABSOLUTE SEGMENTED NEUTROPHIL [2]: 1050.33 CELLS/uL | BASOPHIL [2]: 0% | EOSINOPHIL [2]: 0.33% | ERYTHROCYTE COUNT [2]: 5.53 x10E6/uL | HEMATOCRIT [2]: 35.8% | HEMOGLOBIN [2]: 13.53 G/DL | LEUKOCYTE COUNT [2]: 10.73 x10E3/uL | LYMPHOCYTE [2]: 89% | MEAN CORPUSCULAR HEMOGLOBIN [2]: 24.47 pg | MEAN CORPUSCULAR HEMOGLOBIN CONCENTRATION [2]: 37.82 G/DL | MEAN CORPUSCULAR VOLUME [2]: 64.7 fL | MONOCYTE [2]: 0.5% | NEUTROPHIL [2]: 10.17% | NUCLEATED RED BLOOD CELLS [2]: 0 /100WBC | PLATELET COUNT [2]: 1028.5 x10E3/uL | ALANINE AMINOTRANSFERASE [2]: 45.33 u/L | ALBUMIN [2]: 4.33 G/DL | ALKALINE PHOSPHATASE [2]: 351.83 u/L | ASPARTATE AMINOTRANSFERASE [2]: 73.5 u/L | BLOOD UREA NITROGEN [2]: 17.83 mg/dL | CARBON DIOXIDE [2]: 24.67 mmol/L | CHLORIDE [2]: 100 MEQ/L | CHOLESTEROL [2]: 67 mg/dL | CREATINE PHOSPHOKINASE [2]: 284 u/L | CREATININE [2]: 0.2 mg/dL | GLUCOSE [2]: 152.33 mg/dL | LACTATE DEHYDROGENASE [2]: 108.67 u/L | LIPASE [2]: 8.17 u/L | PHOSPHORUS [2]: 11.17 mg/dL | POTASSIUM [2]: 6.14 MEQ/L | SODIUM [2]: 144.68 MEQ/L | TOTAL BILIRUBIN [2]: 0.22 mg/dL | TOTAL PROTEIN [2]: 6.08 G/DL | URIC ACID [2]: 1.27 mg/dL | ABSOLUTE BASOPHIL [3]: 0 CELLS/uL | ABSOLUTE EOSINOPHIL [3]: 34 CELLS/uL | ABSOLUTE LYMPHOCYTE [3]: 9566.33 CELLS/uL | ABSOLUTE MONOCYTE [3]: 34 CELLS/uL | ABSOLUTE SEGMENTED NEUTROPHIL [3]: 1732.33 CELLS/uL | BASOPHIL [3]: 0% | EOSINOPHIL [3]: 0.33% | ERYTHROCYTE COUNT [3]: 5.74 x10E6/uL | HEMATOCRIT [3]: 36.43% | HEMOGLOBIN [3]: 13.5 G/DL | LEUKOCYTE COUNT [3]: 11.37 x10E3/uL | LYMPHOCYTE [3]: 84% | MEAN CORPUSCULAR HEMOGLOBIN [3]: 23.57 pg | MEAN CORPUSCULAR HEMOGLOBIN CONCENTRATION [3]: 37.07 G/DL | MEAN CORPUSCULAR VOLUME [3]: 63.6 fL | MONOCYTE [3]: 0.33% | NEUTROPHIL [3]: 15.33% | NUCLEATED RED BLOOD CELLS [3]: 0 /100WBC | PLATELET COUNT [3]: 984 x10E3/uL | ALANINE AMINOTRANSFERASE [3]: 53.67 u/L | ALBUMIN [3]: 4.33 G/DL | ALKALINE PHOSPHATASE [3]: 357 u/L | ASPARTATE AMINOTRANSFERASE [3]: 102 u/L | BLOOD UREA NITROGEN [3]: 15 mg/dL | CARBON DIOXIDE [3]: 26 mmol/L | CHLORIDE [3]: 100.67 MEQ/L | CHOLESTEROL [3]: 72.33 mg/dL | CREATINE PHOSPHOKINASE [3]: 938.33 u/L | CREATININE [3]: 0.19 mg/dL | GLUCOSE [3]: 156 mg/dL | LACTATE DEHYDROGENASE [3]: 212 u/L | LIPASE [3]: 8.67 u/L | PHOSPHORUS [3]: 12.53 mg/dL | POTASSIUM [3]: 6.78 MEQ/L | SODIUM [3]: 143.77 MEQ/L | TOTAL BILIRUBIN [3]: 0.23 mg/dL | TOTAL PROTEIN [3]: 6.07 G/DL

— ChEMBL document CHEMBL3885881, “DrugMatrix”
